Measurements taken from patent publication US10377753B2, “Substituted 4-azaindoles and their use as GluN2B receptor modulators” (Janssen Pharmaceutica NV, priority 2015, dated 2019).
Where a name gives a salt, the structure may show the parent alone.

Target: cloned human NR1/NR2B ion channels (Homo sapiens (Human), UniProt Q05586+Q13224)
Experiment: HNR2BC: effects of test articles on cloned human NR1/NR2B ion channels expressed in mammalian cells (FLIPR calcium flux)
Assay type: cell-based
Conditions: cloned human NR1/NR2B, Table 5
Outline: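 In a stable Tet-On-induced cell line expressing human GluN1/GluN2B, Calcium 5-loaded cells were preincubated 5 min with compound, then stimulated 5 min with glutamate at ~EC80 plus 10 μM glycine, in pH 7.4 HEPES buffer. FLIPR calcium fluorescence was normalized to control wells.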

Sequence of cloned human NR1/NR2B ion channels (Q13224 27-1484, other chains not shown): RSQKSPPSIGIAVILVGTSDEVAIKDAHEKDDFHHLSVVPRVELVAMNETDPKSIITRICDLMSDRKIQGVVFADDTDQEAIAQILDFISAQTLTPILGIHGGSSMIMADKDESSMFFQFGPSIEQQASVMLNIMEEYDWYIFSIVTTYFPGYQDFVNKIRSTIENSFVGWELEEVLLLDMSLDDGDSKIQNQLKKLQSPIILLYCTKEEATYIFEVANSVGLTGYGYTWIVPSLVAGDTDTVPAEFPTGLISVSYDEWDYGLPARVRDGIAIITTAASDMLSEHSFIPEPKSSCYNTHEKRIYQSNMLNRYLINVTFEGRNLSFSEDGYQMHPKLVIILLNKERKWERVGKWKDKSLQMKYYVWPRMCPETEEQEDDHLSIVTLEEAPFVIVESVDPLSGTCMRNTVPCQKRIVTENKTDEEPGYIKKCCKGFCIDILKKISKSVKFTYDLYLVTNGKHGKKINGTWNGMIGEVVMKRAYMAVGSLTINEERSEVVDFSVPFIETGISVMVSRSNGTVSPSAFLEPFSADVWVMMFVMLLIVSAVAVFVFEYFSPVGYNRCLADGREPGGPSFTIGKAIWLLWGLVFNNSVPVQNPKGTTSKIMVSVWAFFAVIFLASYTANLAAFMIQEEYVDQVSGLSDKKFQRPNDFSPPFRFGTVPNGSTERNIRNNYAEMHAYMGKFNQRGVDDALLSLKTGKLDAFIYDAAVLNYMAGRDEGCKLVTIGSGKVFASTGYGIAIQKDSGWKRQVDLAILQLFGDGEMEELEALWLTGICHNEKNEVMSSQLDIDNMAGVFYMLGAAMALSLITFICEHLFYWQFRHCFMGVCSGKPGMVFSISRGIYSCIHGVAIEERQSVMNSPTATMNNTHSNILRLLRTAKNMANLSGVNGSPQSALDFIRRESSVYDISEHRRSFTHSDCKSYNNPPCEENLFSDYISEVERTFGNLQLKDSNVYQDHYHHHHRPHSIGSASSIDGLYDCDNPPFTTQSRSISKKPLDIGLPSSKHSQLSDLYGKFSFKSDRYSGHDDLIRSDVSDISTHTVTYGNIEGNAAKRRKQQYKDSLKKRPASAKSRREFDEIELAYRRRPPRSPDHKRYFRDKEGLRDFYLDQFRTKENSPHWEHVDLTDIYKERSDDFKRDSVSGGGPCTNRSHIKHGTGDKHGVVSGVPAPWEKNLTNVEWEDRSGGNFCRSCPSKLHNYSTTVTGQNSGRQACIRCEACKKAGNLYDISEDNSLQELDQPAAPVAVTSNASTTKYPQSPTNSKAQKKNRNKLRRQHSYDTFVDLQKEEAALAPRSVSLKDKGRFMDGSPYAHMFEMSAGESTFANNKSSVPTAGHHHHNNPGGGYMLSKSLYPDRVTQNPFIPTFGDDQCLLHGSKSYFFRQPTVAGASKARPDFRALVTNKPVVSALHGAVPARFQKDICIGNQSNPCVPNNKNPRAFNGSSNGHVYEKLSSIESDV

Point of comparison: `Cc1cc(-c2cnc3ccn(Cc4cccnc4)c3c2)ccc1F` [Example 172, 6-(4-Fluoro-3-methyl-phenyl)-1-(3-pyridylmethyl)pyrrolo[3,2-b]pyridine trifluoroacetate salt], IC50 794 nM. Against it:
- Cc1cc(-c2cnc3ccn(CCC(C)C)c3c2)ccc1F [Example 171, 6-(4-Fluoro-3-methyl-phenyl)-1-isopentyl-pyrrolo[3,2-b]pyridine trifluoroacetate salt] — 4-fold lower, 200 nM
- Cc1cc(-c2cnc3ccn(CC4CC4)c3c2)ccc1F [Example 174, 1-(Cyclopropylmethyl)-6-(4-fluoro-3-methyl-phenyl)pyrrolo[3,2-b]pyridine trifluoroacetate salt] — 5-fold lower, 158 nM
- Cc1cc(-c2cnc3c(Cl)cn(CC(=O)NC4CC4)c3c2)ccc1F [Example 176, 2-[3-Chloro-6-(4-fluoro-3-methyl-phenyl)pyrrolo[3,2-b]pyridin-1-yl]-N-cyclopropyl-acetamide trifluoroacetate salt] — 25-fold lower, 31.6 nM
- Cc1cc(-c2cnc3ccn(Cc4ccncc4)c3c2)ccc1F [Example 179, 6-(4-Fluoro-3-methyl-phenyl)-1-(4-pyridylmethyl)pyrrolo[3,2-b]pyridine trifluoroacetate salt] — 16-fold lower, 50.1 nM
- Cc1cc(-c2cnc3ccn(CCn4cccn4)c3c2)ccc1F [Example 181, 6-(4-Fluoro-3-methyl-phenyl)-1-(2-pyrazol-1-ylethyl)pyrrolo[3,2-b]pyridine trifluoroacetate salt] — the same, 794 nM
- O=C(Cn1cc(F)c2ncc(-c3ccc(Cl)s3)cc21)N1CCC1 [Example 182, 1-(Azetidin-1-yl)-2-[6-(5-chloro-2-thienyl)-3-fluoro-pyrrolo[3,2-b]pyridin-1-yl]ethanone] — 5-fold higher, 3980 nM
- Cc1cc(-c2cnc3ccn(Cc4ncccn4)c3c2)ccc1F [Example 183, 6-(4-Fluoro-3-methyl-phenyl)-1-(pyrimidin-2-ylmethyl)pyrrolo[3,2-b]pyridine trifluoroacetate salt] — 25-fold lower, 31.6 nM
- Cc1cc(-c2cnc3c(F)cn(CC(=O)N4CC(F)(F)C4)c3c2)ccc1F [Example 185, 1-(3,3-Difluoroazetidin-1-yl)-2-[3-fluoro-6-(4-fluoro-3-methyl-phenyl)pyrrolo[3,2-b]pyridin-1-yl]ethanone] — 7.9-fold lower, 100 nM
- Cc1cc(-c2cnc3ccn(CC(=O)C4CC4)c3c2)ccc1F [Example 186, 1-Cyclopropyl-2-[6-(4-fluoro-3-methyl-phenyl)pyrrolo[3,2-b]pyridin-1-yl]ethanone trifluoroacetate salt] — 20-fold lower, 39.8 nM
- Cc1cc(-c2cnc3ccn(CC(=O)C(C)C)c3c2)ccc1F [Example 187, 1-[6-(4-Fluoro-3-methyl-phenyl)pyrrolo[3,2-b]pyridin-1-yl]-3-methyl-butan-2-one trifluoroacetate salt] — 16-fold lower, 50.1 nM
- Cc1cc(-c2cnc3ccn(CC(=O)N4CCC(O)CC4)c3c2)ccc1F [Example 188, 2-[6-(4-Fluoro-3-methyl-phenyl)pyrrolo[3,2-b]pyridin-1-yl]-1-(4-hydroxy-1-piperidyl)ethanone trifluoroacetate salt] — 16-fold lower, 50.1 nM
- COC1CCN(C(=O)Cn2ccc3ncc(-c4ccc(F)c(C)c4)cc32)CC1 [Example 190, 2-[6-(4-Fluoro-3-methyl-phenyl)pyrrolo[3,2-b]pyridin-1-yl]-1-(4-methoxy-1-piperidyl)ethanone trifluoroacetate salt] — 3.2-fold lower, 251 nM
- Cc1cc(-c2cnc3ccn(CC(=O)N4CCC(F)CC4)c3c2)ccc1F [Example 191, 2-[6-(4-Fluoro-3-methyl-phenyl)pyrrolo[3,2-b]pyridin-1-yl]-1-(4-fluoro-1-piperidyl)ethanone trifluoroacetate salt] — 2.5-fold lower, 316 nM
- Cc1cc(-c2cnc3ccn(CC(=O)N4CCC(CF)CC4)c3c2)ccc1F [Example 192, 2-[6-(4-Fluoro-3-methyl-phenyl)pyrrolo[3,2-b]pyridin-1-yl]-1-[4-(fluoromethyl)-1-piperidyl]ethanone trifluoroacetate salt] — 10-fold lower, 79.4 nM
- Cc1cc(-c2cnc3ccn(CC(=O)N4CCOC(C)(C)C4)c3c2)ccc1F [Example 197, 1-(2,2-Dimethylmorpholin-4-yl)-2-[6-(4-fluoro-3-methyl-phenyl)pyrrolo[3,2-b]pyridin-1-yl]ethanone trifluoroacetate salt] — 2-fold higher, 1580 nM
- Cc1cc(-c2cnc3ccn(CC(=O)N4CCCC4(C)C)c3c2)ccc1F [Example 200, 1-(2,2-Dimethylpyrrolidin-1-yl)-2-[6-(4-fluoro-3-methyl-phenyl)pyrrolo[3,2-b]pyridin-1-yl]ethanone trifluoroacetate salt] — 3.2-fold lower, 251 nM
- Cc1cc(-c2cnc3ccn(CC(=O)N4CC[C@@H](F)C4)c3c2)ccc1F [Example 201, 2-[6-(4-Fluoro-3-methyl-phenyl)pyrrolo[3,2-b]pyridin-1-yl]-1-[(3R)-3-fluoropyrrolidin-1-yl]ethanone trifluoroacetate salt] — 5-fold higher, 3980 nM
- CC1(O)CN(C(=O)Cn2ccc3ncc(-c4ccc(F)cc4)cc32)C1 [Example 202, 2-[6-(4-Fluorophenyl)pyrrolo[3,2-b]pyridin-1-yl]-1-(3-hydroxy-3-methyl-azetidin-1-yl)ethanone] — 6.3-fold lower, 126 nM
- O=C(Cn1ccc2ncc(-c3ccc(F)cc3)cc21)N1CC(O)(C(F)(F)F)C1 [Example 203, 2-[6-(4-Fluorophenyl)pyrrolo[3,2-b]pyridin-1-yl]-1-[3-hydroxy-3-(trifluoromethyl)azetidin-1-yl]ethanone] — 2-fold lower, 398 nM
- O=C(Cn1ccc2ncc(-c3ccc(F)cc3)cc21)N1CC(F)C1 [Example 204, 1-(3-Fluoroazetidin-1-yl)-2-[6-(4-fluorophenyl)pyrrolo[3,2-b]pyridin-1-yl]ethanone] — 2-fold higher, 1580 nM
- CN(C(=O)Cn1ccc2ncc(-c3ccc(F)cc3)cc21)C1CC1 [Example 205, N-Cyclopropyl-2-[6-(4-fluorophenyl)pyrrolo[3,2-b]pyridin-1-yl]-N-methyl-acetamide] — 16-fold lower, 50.1 nM
- O=C(Cn1ccc2ncc(-c3ccc(F)cc3)cc21)N1CC(CO)C1 [Example 206, 2-[6-(4-Fluorophenyl)pyrrolo[3,2-b]pyridin-1-yl]-1-[3-(hydroxymethyl)azetidin-1-yl]ethanone] — 2.5-fold lower, 316 nM
- COC1CN(C(=O)Cn2ccc3ncc(-c4ccc(F)cc4)cc32)C1 [Example 207, 2-[6-(4-Fluorophenyl)pyrrolo[3,2-b]pyridin-1-yl]-1-(3-methoxyazetidin-1-yl)ethanone] — 2.5-fold lower, 316 nM
- Cc1cc(-c2cnc3ccn(CC(=O)N4CC5(CC5)C4)c3c2)ccc1F [Example 208, 1-(5-Azaspiro[2.3]hexan-5-yl)-2-[6-(4-fluoro-3-methyl-phenyl)pyrrolo[3,2-b]pyridin-1-yl]ethanone trifluoroacetate salt] — 2.5-fold lower, 316 nM
- Cc1cc(-c2cnc3ccn(CC(=O)N4CCC(C)(O)CC4)c3c2)ccc1F [Example 209, 2-[6-(4-Fluoro-3-methyl-phenyl)pyrrolo[3,2-b]pyridin-1-yl]-1-(4-hydroxy-4-methyl-1-piperidyl)ethanone trifluoroacetate salt] — 4-fold lower, 200 nM
- O=C(Cn1ccc2ncc(-c3ccc(F)cc3)cc21)N1CC(O)C1 [Example 211, 2-[6-(4-Fluorophenyl)pyrrolo[3,2-b]pyridin-1-yl]-1-(3-hydroxyazetidine-1-yl)ethanone] — 2-fold lower, 398 nM
- N#CC1CN(C(=O)Cn2ccc3ncc(-c4ccc(F)cc4)cc32)C1 [Example 212, 1-[2-[6-(4-Fluorophenyl)pyrrolo[3,2-b]pyridin-1-yl]acetyl]azetidine-3-carbonitrile] — 2.5-fold lower, 316 nM
- O=C(Cn1ccc2ncc(-c3ccc(F)cc3)cc21)N1CC(F)(F)C1 [Example 213, 1-(3,3-Difluoroazetidin-1-yl)-2-[6-(4-fluorophenyl)pyrrolo[3,2-b]pyridin-1-yl]ethanone] — within 1.5-fold, 631 nM
- CC1CN(C(=O)Cn2ccc3ncc(-c4ccc(F)cc4)cc32)C1 [Example 214, 2-[6-(4-Fluorophenyl)pyrrolo[3,2-b]pyridin-1-yl]-1-(3-methylazetidin-1-yl)ethanone] — 7.9-fold lower, 100 nM
- CC1(C)CN(C(=O)Cn2ccc3ncc(-c4ccc(F)cc4)cc32)C1 [Example 215, 1-(3,3-Dimethylazetidin-1-yl)-2-[6-(4-fluorophenyl)pyrrolo[3,2-b]pyridin-1-yl]ethanone] — 5-fold lower, 158 nM
- O=C1CCN(C(=O)Cn2ccc3ncc(-c4ccc(F)cc4)cc32)C1 [Example 216, 1-[2-[6-(4-Fluorophenyl)pyrrolo[3,2-b]pyridin-1-yl]acetyl]pyrrolidin-3-one trifluoroacetate salt] — 1.6-fold higher, 1260 nM
- O=C(Cn1ccc2ncc(-c3ccc(F)cc3)cc21)N1CCC(F)(F)C1 [Example 217, 1-(3,3-Difluoropyrrolidin-1-yl)-2-[6-(4-fluorophenyl)pyrrolo[3,2-b]pyridin-1-yl]ethanone] — 2.5-fold lower, 316 nM
- Cc1cccc(-c2cnc3ccn(CC(=O)C4CC4)c3c2)c1 [Example 219, 1-Cyclopropyl-2-[6-(m-tolyl)pyrrolo[3,2-b]pyridin-1-yl]ethanone] — 1.6-fold lower, 501 nM
- O=C(Cn1ccc2ncc(-c3ccccc3)cc21)C1CC1 [Example 220, 1-Cyclopropyl-2-(6-phenylpyrrolo[3,2-b]pyridin-1-yl)ethanone] — 16-fold lower, 50.1 nM
- O=C(Cn1ccc2ncc(-c3cccc(F)c3)cc21)C1CC1 [Example 221, 1-Cyclopropyl-2-[6-(3-fluorophenyl)pyrrolo[3,2-b]pyridin-1-yl]ethanone] — 10-fold lower, 79.4 nM
- O=C(Cn1ccc2ncc(-c3ccc(F)cc3)cc21)C1CC1 [Example 222, 1-Cyclopropyl-2-[6-(4-fluorophenyl)pyrrolo[3,2-b]pyridin-1-yl]ethanone] — 10-fold lower, 79.4 nM
- Cc1c(F)ccc(-c2cnc3ccn(CC(=O)C(C)C)c3c2)c1C [Example 223, 1-[6-(4-Fluoro-2,3-dimethyl-phenyl)pyrrolo[3,2-b]pyridin-1-yl]-3-methyl-butan-2-one] — 10-fold lower, 79.4 nM
- CCc1cccc(-c2cnc3ccn(CC(=O)C(C)C)c3c2)c1 [Example 224, 1-[6-(3-Ethylphenyl)pyrrolo[3,2-b]pyridin-1-yl]-3-methyl-butan-2-one] — 2-fold lower, 398 nM
